Tested on: Aspergillus niger
Assay: Adhesion test with molds on silicone sealant DC3390 film
Details: 1 wt. % surfactant in silicone sealant DC3390; adhered Aspergillus niger spores (CFU) after 48 hours at 25° C.; sealant with no active substance = 100
Experimental: The silicone sealant DC3390 was used. 1 wt. % of surfactant was added and homogenized in the Speedmixer. The surfactants indicated in Table 1 were tested in comparison with the joint sealing compound without the addition of the surfactants being tested. The resulting composition was spread as the film (22×22×2 mm) and left to harden in air. The resulting test specimen was disinfected with 70% ethanol for 10 minutes, then washed with distilled water and dried. The test specimens were subsequently coated with a germ suspension of Aspergillus niger and incubated for one hour. The germ suspension was then siphoned off and the specimen was washed twice. The specimens were transferred into sterile tubes that contained 5 ml of inactivation solution and shaken on a shaker for 10 minutes at 400 rpm. To determine the number of adhered spores, firstly the specimens were placed in sterile 6-well plates and covered with wort agar with INT, secondly a determination of the colony count of the inactivation solution was carried out by the inoculation plate method. After 48 hours incubation at 25° C., the number of colony forming units (CFU) was subsequently determined.

In the case of CCO[Si](CCC(F)(F)C(F)(F)C(F)(F)C(F)(F)C(F)(F)C(F)(F)F)(OCC)OCC [DYNASYLAN F8261, perfluorinated octyltriethoxysilane], the “Mold adhesion [%]” value is reported as 80%.

Reference: US7910647B2, “Adhesion inhibition of microorganisms by non-ionic surfactants” (Henkel AG & Co. KGaA, priority 2003, dated 2011)
